Results on 9 molecules are retold here after PubChem BioAssay (NCI).

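Protocol summary: plate cells (96-well), add compound at 5 concentrations, incubate 48 h, interpolate endpoints linearly. GI50 is the concentration that inhibits growth by half. TGI is the concentration that stops growth completely.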 A value given as a limit tells only on which side of the number the result lay.

Test systems include SK-MEL-5 melanoma; HT29 colon; NCI-H522 lung; A498 renal; OVCAR-5 ovarian; UACC-257 melanoma; 786-0 renal; PC-3 prostate; MOLT-4 leukemia; SK-MEL-28 melanoma.
Holding throughout (experiment): growth of human tumour cells (NCI), 48 h

As to `COC(=O)[C@H](Cc1c[nH]c2ccccc12)NC(=O)[C@@H](OC)[C@@H]1Cc2cc3cc(OC4CC(OC5CC(O)C(O)C(C)O5)C(O)C(C)O4)c(C)c(O)c3c(O)c2C(=O)[C@H]1OC1CC(OC2CC(OC3CC(C)(O)C(O)C(C)O3)C(O)C(C)O2)C(O)C(C)O1` (stereo partly drawn), the GI50 in the test with SK-MEL-5 melanoma is 0.00621 µM; in the test with HT29 colon, 0.00611 µM; in the test on NCI-H522 lung it was 0.00509 µM; with A498 renal, 0.00517 µM; with OVCAR-5 ovarian, 0.0102 µM; in the test with UACC-257 melanoma it was 0.00662 µM. The GI50 in the test with 786-0 renal is 0.0158 µM; in the test with PC-3 prostate, 0.0088 µM; in the test on MOLT-4 leukemia, 0.00654 µM; in the test with SK-MEL-28 melanoma, 0.00424 µM. Further, the TGI was 0.0308 µM with SK-MEL-5 melanoma; 0.0552 µM with NCI-H522 lung; 0.0249 µM with A498 renal; above 16.5 µM in the test with OVCAR-5 ovarian; 0.124 µM in the test on UACC-257 melanoma; above 16.5 µM in the test on 786-0 renal. The TGI was found to be 0.412 µM in the test on PC-3 prostate and 0.0193 µM with SK-MEL-28 melanoma.
`O=C1/C(=C/c2ccc(O)cc2)CSc2ccc(Cl)cc21`: the GI50 in the test with SK-MEL-5 melanoma is 12.3 µM; with HT29 colon it was 16.5 µM; with NCI-H522 lung, 3.25 µM; with A498 renal it was 15 µM; in the test with OVCAR-5 ovarian, 19.8 µM; with UACC-257 melanoma, 19.1 µM. Further, the GI50 in the test with 786-0 renal is 17.2 µM; in the test with PC-3 prostate, 13.1 µM; with MOLT-4 leukemia it was 4.09 µM; in the test with SK-MEL-28 melanoma it was 4.04 µM. Further, the TGI in the test on SK-MEL-5 melanoma came to 24.7 µM; with HT29 colon it was 89.7 µM; in the test on NCI-H522 lung it was 10.7 µM; in the test with A498 renal it was 28.4 µM; in the test on OVCAR-5 ovarian, 40.4 µM; in the test on UACC-257 melanoma it was 38.9 µM. The TGI in the test on 786-0 renal was 49.8 µM; in the test on PC-3 prostate, 53.8 µM; in the test on MOLT-4 leukemia it was above 100 µM; in the test on SK-MEL-28 melanoma, 15.8 µM.
`CSc1nc2cc(S(=O)(=O)N3CCCCC3)ccc2s1`: the TGI with SK-MEL-5 melanoma, with HT29 colon, in the test on NCI-H522 lung, in the test on A498 renal, in the test with OVCAR-5 ovarian and with UACC-257 melanoma was above 100 µM in each case. Also, the TGI in the test with 786-0 renal, in the test with PC-3 prostate, with MOLT-4 leukemia and with SK-MEL-28 melanoma was above 100 µM throughout.
For `Clc1ccc(-c2c(C3=NCCCN3)nnn2-c2ccc(Cl)cc2)cc1`, the TGI in the test with SK-MEL-5 melanoma is 35.9 µM; with HT29 colon it was 64.4 µM; in the test with NCI-H522 lung, 64.3 µM; with A498 renal, above 96.8 µM; with OVCAR-5 ovarian, above 89.8 µM; with UACC-257 melanoma it was 44.1 µM. The TGI is above 77.1 µM in the test with 786-0 renal, above 68.4 µM with PC-3 prostate, 60.9 µM with MOLT-4 leukemia and 31.6 µM in the test with SK-MEL-28 melanoma.
`CC1(C)N=C(N)N=C(N)N1c1ccc(OCc2ccc(S(=O)(=O)F)c(Cl)c2)c(Cl)c1`: the GI50 was 1.03 µM with SK-MEL-5 melanoma; 0.845 µM in the test on HT29 colon; 3.28 µM in the test on NCI-H522 lung; above 100 µM in the test with A498 renal; above 100 µM in the test on OVCAR-5 ovarian; 2.38 µM in the test with UACC-257 melanoma. Further, the GI50 with 786-0 renal was 0.814 µM; in the test with PC-3 prostate, 0.502 µM; with MOLT-4 leukemia it was 3.59 µM; in the test with SK-MEL-28 melanoma, 8.61 µM. The TGI with SK-MEL-5 melanoma, in the test with HT29 colon, in the test with NCI-H522 lung, with A498 renal, in the test on OVCAR-5 ovarian and in the test with UACC-257 melanoma was above 100 µM in each case. Also, the TGI in the test on 786-0 renal, in the test with PC-3 prostate, with MOLT-4 leukemia and in the test with SK-MEL-28 melanoma was above 100 µM each time.
On to `COc1cc2c3c(n(CCCCOC(=O)C(Cl)(Cl)Cl)c(=O)c2cc1OC)-c1cc2c(cc1C3=O)OCO2`, for which the GI50 with SK-MEL-5 melanoma was above 100 µM; in the test with HT29 colon it was above 100 µM; in the test on NCI-H522 lung, 0.692 µM; in the test with A498 renal, above 100 µM; in the test on OVCAR-5 ovarian it was above 100 µM; in the test with UACC-257 melanoma it was above 100 µM. The GI50 is 17.2 µM with 786-0 renal, above 100 µM in the test on PC-3 prostate, 5.67 µM with MOLT-4 leukemia and above 100 µM in the test with SK-MEL-28 melanoma. Besides, the TGI is above 100 µM in the test with SK-MEL-5 melanoma; above 100 µM in the test with HT29 colon; 76.3 µM in the test on NCI-H522 lung; above 100 µM in the test with A498 renal; above 100 µM in the test on OVCAR-5 ovarian; above 100 µM with UACC-257 melanoma. In addition, the TGI in the test on 786-0 renal was 41.3 µM; with PC-3 prostate, above 100 µM; in the test on MOLT-4 leukemia, above 100 µM; with SK-MEL-28 melanoma, above 100 µM.
Regarding `COC(=O)c1c(C)[nH]c(/C=C2\N=C(c3ccc[nH]3)C=C2OC)c1C`, the GI50 in the test with SK-MEL-5 melanoma was 0.225 µM; in the test on HT29 colon, 0.0339 µM; in the test on NCI-H522 lung it was 0.367 µM; in the test on A498 renal, 2.64 µM; with OVCAR-5 ovarian, 1.4 µM; in the test with UACC-257 melanoma, 0.339 µM. Moreover, the GI50 with 786-0 renal is 0.262 µM; in the test on PC-3 prostate, 0.349 µM; in the test on MOLT-4 leukemia, 0.0495 µM; with SK-MEL-28 melanoma, 0.685 µM. The TGI with SK-MEL-5 melanoma is 0.665 µM; with HT29 colon, above 100 µM; in the test with NCI-H522 lung it was 2.44 µM; in the test on A498 renal, 10.7 µM; with OVCAR-5 ovarian, 3.9 µM; in the test with UACC-257 melanoma it was 1.52 µM. Besides, the TGI is 1.4 µM in the test with 786-0 renal, above 100 µM with PC-3 prostate, above 36.5 µM in the test with MOLT-4 leukemia and 2.36 µM in the test on SK-MEL-28 melanoma.
Turning to `C/C=C(\C)CC/C=C/CO[Si](C)(C)C(C)(C)C`, the TGI in the test on SK-MEL-5 melanoma, with HT29 colon, in the test on NCI-H522 lung, with A498 renal, in the test with OVCAR-5 ovarian and in the test with UACC-257 melanoma was above 100 µM each time. Besides, the TGI is above 100 µM in the test on 786-0 renal, above 100 µM in the test with PC-3 prostate, 81.3 µM in the test on MOLT-4 leukemia and above 100 µM in the test with SK-MEL-28 melanoma.
With `Fc1ccc(-c2nn3ncccc3c2-c2ccnc(Nc3ccc4c(c3)OCCO4)n2)cc1`, the GI50 is 3.99 µM in the test with SK-MEL-5 melanoma; 0.933 µM in the test with HT29 colon; 3.56 µM in the test with NCI-H522 lung; 4.04 µM in the test with A498 renal; 14 µM with OVCAR-5 ovarian; 6.22 µM in the test with UACC-257 melanoma. Moreover, the GI50 in the test on 786-0 renal is 2.29 µM; in the test with PC-3 prostate it was 7.32 µM; with MOLT-4 leukemia, 4.8 µM; with SK-MEL-28 melanoma it was 8.64 µM. The TGI in the test on SK-MEL-5 melanoma is 9.51 µM; in the test with HT29 colon, above 13.6 µM; in the test on NCI-H522 lung, 10.7 µM; with A498 renal, 17.1 µM; in the test with OVCAR-5 ovarian, above 25 µM; with UACC-257 melanoma, 19.7 µM. In addition, the TGI was above 25 µM with 786-0 renal, above 25 µM in the test with PC-3 prostate, above 22.4 µM in the test on MOLT-4 leukemia and above 25 µM in the test with SK-MEL-28 melanoma.
